The text below walks through data of ChEMBL document CHEMBL5512607, “Journey of Von Hippel-Lindau (VHL) E3 ligase in PROTACs design: From VHL ligands to VHL-based degraders” (Eur J Med Chem, 2024).

The DC50 is the concentration at which degradation of the target reaches its halfway point. What is called EC50 is the concentration at which the effect is half-maximal.

Experiment [1] addresses T1, von Hippel-Lindau disease tumor suppressor/Epidermal growth factor receptor (Homo sapiens, UniProt P00533+P40337). The experiment can be described thus: PROTAC activity at VHL/EGFR del19 mutant in human HCC827 cells assessed as protein degradation incubated for 24 hrs by immunoblot analysis. Type of experiment: cell-based. Background: Immunoblotting shows a protein as a band on a membrane.
Target sequence in this assay (P00533 whole entry, looked up, stated change not applied): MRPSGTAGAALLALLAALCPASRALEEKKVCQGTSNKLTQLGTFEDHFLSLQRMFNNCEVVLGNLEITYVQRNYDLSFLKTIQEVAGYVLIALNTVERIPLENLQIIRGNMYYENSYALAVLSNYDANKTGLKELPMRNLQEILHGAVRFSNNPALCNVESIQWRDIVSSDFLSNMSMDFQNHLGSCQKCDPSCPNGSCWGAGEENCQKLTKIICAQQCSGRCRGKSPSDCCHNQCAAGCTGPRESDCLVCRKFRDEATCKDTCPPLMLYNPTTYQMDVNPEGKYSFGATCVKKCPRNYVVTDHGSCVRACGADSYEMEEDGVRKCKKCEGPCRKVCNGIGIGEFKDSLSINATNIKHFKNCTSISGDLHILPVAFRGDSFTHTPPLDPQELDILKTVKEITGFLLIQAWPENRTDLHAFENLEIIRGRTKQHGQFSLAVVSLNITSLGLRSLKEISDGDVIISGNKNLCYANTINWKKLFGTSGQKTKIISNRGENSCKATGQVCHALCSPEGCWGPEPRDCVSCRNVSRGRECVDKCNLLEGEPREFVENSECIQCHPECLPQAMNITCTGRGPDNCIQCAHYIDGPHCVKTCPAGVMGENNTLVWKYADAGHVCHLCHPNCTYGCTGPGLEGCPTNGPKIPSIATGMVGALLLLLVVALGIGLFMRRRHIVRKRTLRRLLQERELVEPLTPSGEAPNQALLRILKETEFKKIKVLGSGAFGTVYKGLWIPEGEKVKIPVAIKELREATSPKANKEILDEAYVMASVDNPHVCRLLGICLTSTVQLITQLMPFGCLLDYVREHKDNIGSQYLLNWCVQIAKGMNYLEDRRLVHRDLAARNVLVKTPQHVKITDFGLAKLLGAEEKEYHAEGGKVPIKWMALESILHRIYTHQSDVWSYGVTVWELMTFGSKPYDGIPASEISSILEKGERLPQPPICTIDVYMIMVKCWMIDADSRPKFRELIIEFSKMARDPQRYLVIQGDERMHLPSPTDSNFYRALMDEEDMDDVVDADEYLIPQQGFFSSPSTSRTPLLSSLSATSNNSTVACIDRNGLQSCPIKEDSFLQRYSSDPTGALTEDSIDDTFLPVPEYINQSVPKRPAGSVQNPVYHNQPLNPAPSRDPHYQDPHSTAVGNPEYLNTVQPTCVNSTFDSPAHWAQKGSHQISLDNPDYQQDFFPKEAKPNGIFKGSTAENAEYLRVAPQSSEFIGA
Target sequence in this assay (P40337 whole entry, looked up, stated change not applied): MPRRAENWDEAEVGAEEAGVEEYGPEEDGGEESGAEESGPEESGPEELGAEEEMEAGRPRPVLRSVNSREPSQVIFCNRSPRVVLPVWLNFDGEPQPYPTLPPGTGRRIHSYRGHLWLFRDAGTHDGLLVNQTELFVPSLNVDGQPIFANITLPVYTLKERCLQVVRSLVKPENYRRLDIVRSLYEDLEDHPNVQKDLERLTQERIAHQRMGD

In experiment [2] the target is T1, von Hippel-Lindau disease tumor suppressor/Epidermal growth factor receptor. The experiment is described as follows: PROTAC activity at VHL/EGFR del19 mutant in human NCI-H3255 cells assessed as protein degradation incubated for 24 hrs by immunoblot analysis. Type of experiment: cell-based.
Target sequence in this assay (P00533 whole entry, looked up, stated change not applied): as the sequence (P00533 whole entry, looked up, stated change not applied) above
Target sequence in this assay (P40337 whole entry, looked up, stated change not applied): as the sequence (P40337 whole entry, looked up, stated change not applied) above
Experiment [3] concerns von Hippel-Lindau disease tumor suppressor/Epidermal growth factor receptor (Homo sapiens), P00533+P40337 [UNDEFINED MUTATION]. The experiment is described as follows: PROTAC activity at VHL/EGFR del19 mutant in human HCC827 cells assessed as maximal degradation incubated for 24 hrs by immunoblot analysis relative to control. Type of experiment: cell-based.
The test system is the same in experiment [4]. The experiment is described as follows: PROTAC activity at VHL/EGFR del19 mutant in human NCI-H3255 cells assessed as maximal degradation incubated for 24 hrs by immunoblot analysis relative to control. It counts as cell-based.
For experiment [5], the target named is T2, von Hippel-Lindau disease tumor suppressor/Bcl-2-like protein 1 (Homo sapiens, UniProt Q07817+P40337). The experiment is described as follows: PROTAC activity at VHL/BCL-XL in human MOLT-4 cells assessed as induction of BCL-XL degradation incubated for 16 hrs by immunoblot analysis. It counts as cell-based.
Target sequence in this assay (Q07817 whole entry): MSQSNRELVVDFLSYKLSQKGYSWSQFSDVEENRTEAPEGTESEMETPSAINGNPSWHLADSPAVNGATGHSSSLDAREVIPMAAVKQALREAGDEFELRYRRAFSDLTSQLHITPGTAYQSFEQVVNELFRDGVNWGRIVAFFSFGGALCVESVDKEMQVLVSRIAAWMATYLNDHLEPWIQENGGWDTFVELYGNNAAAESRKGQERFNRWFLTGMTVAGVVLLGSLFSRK
Target sequence in this assay (P40337 whole entry): as the sequence (P40337 whole entry, looked up, stated change not applied) above
The target of experiment [6] is T2, von Hippel-Lindau disease tumor suppressor/Bcl-2-like protein 1. The experiment can be described thus: Protac activity at VHL/BCL-XL in human MOLT-4 cells assessed as induction of protein degradation by measuring maximal degradation relative to control. It counts as cell-based.
Target sequence in this assay (P40337 whole entry, looked up): as the sequence (P40337 whole entry, looked up, stated change not applied) above
Target sequence in this assay (Q07817 whole entry, looked up): as the sequence (Q07817 whole entry) above
In experiment [7] the test system is MOLT-4. The experiment is described as follows: Anticancer activity against human MOLT-4 cells assessed as reduction in cell viability incubated for 72 hrs by MTS assay. Type of experiment: functional, cell-based. The following applies: MOLT-4, 72 h. For orientation: Formazan colour is commonly taken as a measure of viable cells.
The target in another experiment is Bcl-2-like protein 1 (Homo sapiens, UniProt Q07817). The experiment can be described thus: Induction of Bcl-xl degradation in HEK293T cells incubated for 16 hrs by immunoblotting analysis. It counts as cell-based.
Experiment [8] addresses Apoptosis regulator Bcl-2 (Homo sapiens, UniProt P10415). The experiment is described as follows: Induction of Bcl2 degradation in HEK293T cells incubated for 16 hrs by immunoblotting analysis. Type of experiment: cell-based.
Experiment [9] addresses T1, von Hippel-Lindau disease tumor suppressor/Epidermal growth factor receptor. The experiment can be described thus: PROTAC activity at VHL/EGFR Ex20ins mutant in human HeLa cells assessed as protein degradation incubated for 24 hrs by immunoblot analysis. Type of experiment: cell-based.
Target sequence in this assay (P00533 whole entry, looked up, stated change not applied): as the sequence (P00533 whole entry, looked up, stated change not applied) above
Target sequence in this assay (P40337 whole entry, looked up, stated change not applied): as the sequence (P40337 whole entry, looked up, stated change not applied) above
For experiment [10] the target is unchanged. The experiment is described as follows: PROTAC activity at VHL/wild type EGFR in human OVCAR-8 cells assessed as protein degradation incubated for 24 hrs by immunoblot analysis. It counts as cell-based.
Experiment [11] concerns von Hippel-Lindau disease tumor suppressor/Epidermal growth factor receptor (Homo sapiens), P00533+P40337 [UNDEFINED MUTATION]. The experiment can be described thus: PROTAC activity at VHL/EGFR Ex20ins mutant in human HeLa cells assessed as maximal degradation incubated for 24 hrs by immunoblot analysis relative to control. It counts as cell-based.
In experiment [12] the target is T1, von Hippel-Lindau disease tumor suppressor/Epidermal growth factor receptor. The experiment can be described thus: PROTAC activity at VHL/wild type EGFR in human OVCAR-8 cells assessed as maximal degradation incubated for 24 hrs by immunoblot analysis relative to control. It counts as cell-based.
Target sequence in this assay (P00533 25-1210 limits assumed): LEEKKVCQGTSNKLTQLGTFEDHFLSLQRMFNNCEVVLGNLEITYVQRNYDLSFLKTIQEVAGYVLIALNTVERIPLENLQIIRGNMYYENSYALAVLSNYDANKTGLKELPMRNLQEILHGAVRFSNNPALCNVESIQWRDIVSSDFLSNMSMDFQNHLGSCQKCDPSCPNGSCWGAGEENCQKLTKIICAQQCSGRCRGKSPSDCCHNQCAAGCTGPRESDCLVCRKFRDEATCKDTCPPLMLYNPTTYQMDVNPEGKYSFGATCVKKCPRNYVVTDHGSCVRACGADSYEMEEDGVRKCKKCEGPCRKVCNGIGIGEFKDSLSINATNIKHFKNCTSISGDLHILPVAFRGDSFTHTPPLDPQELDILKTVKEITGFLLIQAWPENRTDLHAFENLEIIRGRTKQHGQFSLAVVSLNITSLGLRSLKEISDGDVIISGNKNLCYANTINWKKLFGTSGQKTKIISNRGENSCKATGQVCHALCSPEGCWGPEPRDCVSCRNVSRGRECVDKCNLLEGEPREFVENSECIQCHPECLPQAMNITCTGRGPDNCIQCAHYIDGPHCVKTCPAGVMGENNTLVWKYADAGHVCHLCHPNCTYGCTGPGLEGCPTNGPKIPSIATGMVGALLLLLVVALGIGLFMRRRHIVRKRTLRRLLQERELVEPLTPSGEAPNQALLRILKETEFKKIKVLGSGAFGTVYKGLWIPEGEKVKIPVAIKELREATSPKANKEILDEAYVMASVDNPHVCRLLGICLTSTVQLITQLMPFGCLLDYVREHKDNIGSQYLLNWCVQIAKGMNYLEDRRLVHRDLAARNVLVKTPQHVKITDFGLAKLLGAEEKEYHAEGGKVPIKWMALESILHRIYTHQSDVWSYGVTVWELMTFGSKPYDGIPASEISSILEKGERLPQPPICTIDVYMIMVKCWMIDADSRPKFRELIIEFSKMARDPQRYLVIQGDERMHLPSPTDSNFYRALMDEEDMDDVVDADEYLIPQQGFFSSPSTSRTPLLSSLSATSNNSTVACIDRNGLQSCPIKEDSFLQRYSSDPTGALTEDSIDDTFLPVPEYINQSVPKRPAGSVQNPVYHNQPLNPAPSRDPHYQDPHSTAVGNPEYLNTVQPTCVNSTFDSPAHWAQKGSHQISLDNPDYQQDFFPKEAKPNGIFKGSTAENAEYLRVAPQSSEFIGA
Target sequence in this assay (P40337 whole entry partner): as the sequence (P40337 whole entry, looked up, stated change not applied) above
Experiment [13] deals with T2, von Hippel-Lindau disease tumor suppressor/Bcl-2-like protein 1. The experiment can be described thus: PROTAC activity at VHL/BCL-XL in human THP-1 cells assessed as induction of BCL-XL degradation incubated for 16 hrs by immunoblot analysis. It counts as cell-based.
Target sequence in this assay (Q07817 whole entry): as the sequence (Q07817 whole entry) above
Target sequence in this assay (P40337 whole entry): as the sequence (P40337 whole entry, looked up, stated change not applied) above
Experiment [14] has the same target. The experiment can be described thus: PROTAC activity at VHL/BCL-XL in human THP-1 cells assessed as induction of protein degradation by measuring maximal degradation relative to control. Type of experiment: cell-based.
Target sequence in this assay (P40337 whole entry, looked up): as the sequence (P40337 whole entry, looked up, stated change not applied) above
Target sequence in this assay (Q07817 whole entry, looked up): as the sequence (Q07817 whole entry) above
Experiment [15] relates to MOLT-4. The experiment is described as follows: Antiproliferative activity against human MOLT-4 cells assessed as cell growth inhibition incubated for 72 hrs by Cell Titer-Glo Luminescent assay. Type of experiment: functional, cell-based. The conditions noted are these: MOLT-4, 72 h.

Sequence of von Hippel-Lindau disease tumor suppressor/Epidermal growth factor receptor (Homo sapiens), P00533+P40337 [UNDEFINED MUTATION] (P00533 whole entry, looked up, stated change not applied): as the sequence (P00533 whole entry, looked up, stated change not applied) above
Sequence of von Hippel-Lindau disease tumor suppressor/Epidermal growth factor receptor (Homo sapiens), P00533+P40337 [UNDEFINED MUTATION] (P40337 whole entry, looked up, stated change not applied): as the sequence (P40337 whole entry, looked up, stated change not applied) above
Sequence of Bcl-2-like protein 1 (Q07817 whole entry): as the sequence (Q07817 whole entry) above
Sequence of Apoptosis regulator Bcl-2 (P10415 whole entry): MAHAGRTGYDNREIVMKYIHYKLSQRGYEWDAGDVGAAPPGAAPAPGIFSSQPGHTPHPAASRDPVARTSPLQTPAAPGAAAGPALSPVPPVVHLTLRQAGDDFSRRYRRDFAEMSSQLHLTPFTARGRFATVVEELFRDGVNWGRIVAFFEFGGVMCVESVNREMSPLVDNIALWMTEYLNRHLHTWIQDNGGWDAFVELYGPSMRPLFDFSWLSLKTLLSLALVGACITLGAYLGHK

For the compound `COc1cc2ncnc(Nc3ccc(F)c(Cl)c3)c2cc1OCCCCCOCCOCCC(=O)N[C@@H](C(=O)N1C[C@@H](O)C[C@@H]1C(=O)NCc1ccc(-c2scnc2C)cc1)C(C)(C)C`, the figures for the 50% degradation concentration (DC50) in experiment [1] and in experiment [2] were 11.7 nM and 22.3 nM, respectively. Further, the Emax in [3] turned out to be 98.9%; in experiment [4], 96.6%.

Take `Cc1ncsc1-c1ccc([C@H](C)NC(=O)[C@H]2C[C@H](O)CN2C(=O)[C@@H](NC(=O)CCCCCC(=O)N2CCN(CC[C@H](CSc3ccccc3)Nc3ccc(S(=O)(=O)NC(=O)c4ccc(N5CCN(CC6=C(c7ccc(Cl)cc7)CCC(C)(C)C6)CC5)cc4)cc3S(=O)(=O)C(F)(F)F)CC2)C(C)(C)C)cc1`: the DC50 in [5] stood at 53 nM. Also, in [6], the Emax stood at 90.8%. Besides, the half-maximal effective concentration (EC50) in the experiment on MOLT-4 [7] is 52 nM.

Consider `Cc1ncsc1-c1ccc([C@H](C)NC(=O)[C@@H]2C[C@@H](O)CN2C(=O)[C@H](NC(=O)CCCCCCC(=O)N2CCN(C[C@]3(C)CCC(c4ccc(Cl)cc4)=C(CN4CCN(c5ccc(C(=O)NS(=O)(=O)c6ccc(N[C@H](CCN7CCOCC7)CSc7ccccc7)c(S(=O)(=O)C(F)(F)F)c6)cc5)CC4)C3)CC2)C(C)(C)C)cc1`, for which the half-maximal degradation concentration (DC50) at Bcl-2-like protein 1 was found to be 6 nM; in [8], 48 nM.

Turning to `Cc1ncsc1-c1ccc(CNC(=O)[C@@H]2C[C@@H](O)CN2C(=O)[C@H](NC(=O)COCCOCCOc2ccc(-c3ccc4ncnc(Nc5ccc(OCc6cccc(F)c6)c(Cl)c5)c4c3)cc2)C(C)(C)C)cc1`, the results for the half-maximal degradation concentration (DC50) in [9] and in experiment [10] were 736 nM and 39.2 nM, respectively. Besides, the Emax in experiment [11] came to 68.8%; in experiment [12], 97.6%.

For the compound `Cc1ncsc1-c1ccc(CNC(=O)[C@@H]2C[C@@H](O)CN2C(=O)[C@H](NC(=O)CCOCCOCCOCCOCCOCCOCC#Cc2ccc(OCCCc3sc(N4CCc5cccc(C(=O)Nc6nc7ccccc7s6)c5C4)nc3C(=O)O)cc2)C(C)(C)C)cc1`, the DC50 in experiment [13] was 4.8 nM. For the same compound, the Emax in experiment [14] is 76%. For the same compound, the EC50 in the experiment on MOLT-4 [15] was found to be 578 nM.
